Measurements as given in patent publication US6358885B1, “Substituted phenylheterocyclic herbicides” (Mississippi State University, priority 1992, dated 2002).

Tests used:
Test in all cases: Test B preemergence/postemergence greenhouse plant response rating 0 to 10
Conditions in all cases: 0 to 10 scale
morningglory = format: in vivo, Ipomoea hederacea
Source text: (§1) Seeds of barley (Hordeum vulgare), barnyardgrass (Echinochloa crus-galli), bedstraw (Galium aparine), blackgrass (Alopecurus myosuroides), […] (Bromus secalinus), chickweed (Stellaria media), cocklebur (Xanthium pensylvanicum), corn (Zea mays), cotton (Gossypium hirsutum), crabgrass (Digitaria spp.), giant foxtail (Setaria faberii), lambsquarters (Chenopodium album), morningglory (Ipomoea hederacea), rape (Brassica napus), rice (Oryza sativa), sorghum (Sorghum bicolor), soybean (Glycine max), sugar beet (Beta vulgaris), velvetleaf (Abutilon theophrasti), wheat (Triticum aestivum), wild buckwheat (Polygonum convolvulus), and wild oat (Avena fatua) and purple nutsedge. (Cyperus rotundus) tubers were planted and treated preemergence with test chemicals dissolved in a non-phytotoxic solvent. At the same time, these crop and weed species were also treated with postemergence applications of test chemicals. Plants ranged in height from two to eighteen cm (one to four leaf stage) for postemergence treatments. Treated plants and controls were maintained in a greenhouse for twelve to sixteen days, after which all species were compared to controls and visually evaluated. […] A dash (-) response means no test result.

rape = format: in vivo, Brassica napus
Source text: as §1

corn = format: in vivo, Zea mays
Source text: as §1

wheat = format: in vivo, Triticum aestivum
Source text: as §1

rice = format: in vivo, Oryza sativa
Source text: as §1

purple nutsedge = format: in vivo, Cyperus rotundus
Source text: as §1

lambsquarters = format: in vivo, Chenopodium album
Source text: as §1

wild oat = format: in vivo, Avena fatua
Source text: as §1

cotton = format: in vivo, Gossypium hirsutum
Source text: as §1

cocklebur = format: in vivo, Xanthium pensylvanicum
Source text: as §1

chickweed = format: in vivo, Stellaria media
Source text: as §1

velvetleaf = format: in vivo, Abutilon theophrasti
Source text: as §1

giant foxtail = format: in vivo, Setaria faberii
Source text: as §1

soybean = format: in vivo, Glycine max
Source text: as §1

barley = format: in vivo, Hordeum vulgare
Source text: as §1

barnyardgrass = format: in vivo, Echinochloa crus-galli
Source text: as §1

blackgrass = format: in vivo, Alopecurus myosuroides
Source text: as §1

crabgrass = format: in vivo, Digitaria spp.
Source text: as §1

sorghum = format: in vivo, Sorghum bicolor
Source text: as §1

wild buckwheat = format: in vivo, Polygonum convolvulus
Source text: as §1

cheatgrass = format: in vivo, Bromus secalinus
Source text: as §1

bedstraw = format: in vivo, Galium aparine
Source text: as §1

sugar beet = format: in vivo, Beta vulgaris
Source text: as §1

CCC(=O)Oc1cc(-c2nn3c(c2Cl)CCCC3)c(F)cc1Cl [Compound 47]
9: Plant response rating, Morningglory (morningglory; POSTEMERGENCE, Rate 50 g/ha) | Plant response rating, Lambsquarter (lambsquarters; PREEMERGENCE, Rate 50 g/ha) | Plant response rating, Lambsquarter (lambsquarters; Rate 200 g/ha, PREEMERGENCE) | Plant response rating, Cocklebur (cocklebur; POSTEMERGENCE, Rate 200 g/ha) | Plant response rating, Chickweed (chickweed; POSTEMERGENCE, Rate 50 g/ha) | Plant response rating, Chickweed (chickweed; POSTEMERGENCE, Rate 200 g/ha) | Plant response rating, Velvetleaf (velvetleaf; Rate 200 g/ha, POSTEMERGENCE) | Plant response rating, Barnyardgrass (barnyardgrass; POSTEMERGENCE, Rate 200 g/ha) | Plant response rating, Wild buckwheat (wild buckwheat; Rate 200 g/ha, PREEMERGENCE) | Plant response rating, Bedstraw (bedstraw; POSTEMERGENCE, Rate 50 g/ha) | Plant response rating, Bedstraw (bedstraw; PREEMERGENCE, Rate 50 g/ha) | Plant response rating, Bedstraw (bedstraw; Rate 200 g/ha, PREEMERGENCE)
5: Plant response rating, Corn (corn; POSTEMERGENCE, Rate 200 g/ha) | Plant response rating, Rice (rice; Rate 200 g/ha, POSTEMERGENCE) | Plant response rating, Giant foxtail (giant foxtail; Rate 200 g/ha, PREEMERGENCE) | Plant response rating, Barley (barley; POSTEMERGENCE, Rate 50 g/ha)
1: Plant response rating, Morningglory (morningglory; PREEMERGENCE, Rate 50 g/ha) | Plant response rating, Rape (rape; PREEMERGENCE, Rate 50 g/ha) | Plant response rating, Sugar beet (sugar beet; PREEMERGENCE, Rate 50 g/ha)
7: Plant response rating, Lambsquarter (lambsquarters; POSTEMERGENCE, Rate 50 g/ha) | Plant response rating, Soybean (soybean; POSTEMERGENCE, Rate 50 g/ha) | Plant response rating, Soybean (soybean; Rate 200 g/ha, POSTEMERGENCE)
0: Plant response rating, Corn (corn; PREEMERGENCE, Rate 50 g/ha) | Plant response rating, Corn (corn; Rate 200 g/ha, PREEMERGENCE) | Plant response rating, Wheat (wheat; PREEMERGENCE, Rate 50 g/ha) | Plant response rating, Rice (rice; PREEMERGENCE, Rate 50 g/ha) | Plant response rating, Rice (rice; Rate 200 g/ha, PREEMERGENCE) | Plant response rating, Nutsedge (purple nutsedge; PREEMERGENCE, Rate 50 g/ha) | Plant response rating, Nutsedge (purple nutsedge; Rate 200 g/ha, PREEMERGENCE) | Plant response rating, Wild oat (wild oat; PREEMERGENCE, Rate 50 g/ha) | Plant response rating, Cotton (cotton; PREEMERGENCE, Rate 50 g/ha) | Plant response rating, Chickweed (chickweed; PREEMERGENCE, Rate 50 g/ha) | Plant response rating, Giant foxtail (giant foxtail; PREEMERGENCE, Rate 50 g/ha) | Plant response rating, Soybean (soybean; PREEMERGENCE, Rate 50 g/ha) | Plant response rating, Soybean (soybean; Rate 200 g/ha, PREEMERGENCE) | Plant response rating, Barley (barley; PREEMERGENCE, Rate 50 g/ha) | Plant response rating, Barley (barley; Rate 200 g/ha, PREEMERGENCE) | Plant response rating, Barnyardgrass (barnyardgrass; PREEMERGENCE, Rate 50 g/ha) | Plant response rating, Barnyardgrass (barnyardgrass; Rate 200 g/ha, PREEMERGENCE) | Plant response rating, Crabgrass (crabgrass; PREEMERGENCE, Rate 50 g/ha) | Plant response rating, Crabgrass (crabgrass; Rate 200 g/ha, PREEMERGENCE) | Plant response rating, Sorghum (sorghum; PREEMERGENCE, Rate 50 g/ha) | Plant response rating, Sorghum (sorghum; Rate 200 g/ha, PREEMERGENCE) | Plant response rating, Wild buckwheat (wild buckwheat; PREEMERGENCE, Rate 50 g/ha) | Plant response rating, Cheatgrass (cheatgrass; PREEMERGENCE, Rate 50 g/ha) | Plant response rating, Cheatgrass (cheatgrass; Rate 200 g/ha, PREEMERGENCE)
6: Plant response rating, Rape (rape; Rate 200 g/ha, POSTEMERGENCE) | Plant response rating, Wheat (wheat; Rate 200 g/ha, POSTEMERGENCE) | Plant response rating, Cocklebur (cocklebur; POSTEMERGENCE, Rate 50 g/ha) | Plant response rating, Giant foxtail (giant foxtail; Rate 200 g/ha, POSTEMERGENCE) | Plant response rating, Barnyardgrass (barnyardgrass; POSTEMERGENCE, Rate 50 g/ha) | Plant response rating, Crabgrass (crabgrass; POSTEMERGENCE, Rate 200 g/ha)
8: Plant response rating, Nutsedge (purple nutsedge; Rate 200 g/ha, POSTEMERGENCE) | Plant response rating, Velvetleaf (velvetleaf; POSTEMERGENCE, Rate 50 g/ha) | Plant response rating, Blackgrass (blackgrass; POSTEMERGENCE, Rate 200 g/ha) | Plant response rating, Sugar beet (sugar beet; Rate 200 g/ha, PREEMERGENCE)
10: Plant response rating, Morningglory (morningglory; Rate 200 g/ha, POSTEMERGENCE) | Plant response rating, Lambsquarter (lambsquarters; Rate 200 g/ha, POSTEMERGENCE) | Plant response rating, Cotton (cotton; POSTEMERGENCE, Rate 50 g/ha) | Plant response rating, Cotton (cotton; POSTEMERGENCE, Rate 200 g/ha) | Plant response rating, Wild buckwheat (wild buckwheat; POSTEMERGENCE, Rate 50 g/ha) | Plant response rating, Wild buckwheat (wild buckwheat; Rate 200 g/ha, POSTEMERGENCE) | Plant response rating, Bedstraw (bedstraw; POSTEMERGENCE, Rate 200 g/ha) | Plant response rating, Sugar beet (sugar beet; POSTEMERGENCE, Rate 50 g/ha) | Plant response rating, Sugar beet (sugar beet; Rate 200 g/ha, POSTEMERGENCE)
4: Plant response rating, Corn (corn; POSTEMERGENCE, Rate 50 g/ha) | Plant response rating, Rice (rice; POSTEMERGENCE, Rate 50 g/ha) | Plant response rating, Velvetleaf (velvetleaf; Rate 200 g/ha, PREEMERGENCE) | Plant response rating, Giant foxtail (giant foxtail; POSTEMERGENCE, Rate 50 g/ha) | Plant response rating, Barley (barley; POSTEMERGENCE, Rate 200 g/ha) | Plant response rating, Blackgrass (blackgrass; POSTEMERGENCE, Rate 50 g/ha) | Plant response rating, Sorghum (sorghum; Rate 200 g/ha, POSTEMERGENCE) | Plant response rating, Cheatgrass (cheatgrass; POSTEMERGENCE, Rate 50 g/ha) | Plant response rating, Cheatgrass (cheatgrass; POSTEMERGENCE, Rate 200 g/ha)
2: Plant response rating, Rape (rape; Rate 200 g/ha, PREEMERGENCE) | Plant response rating, Wheat (wheat; Rate 200 g/ha, PREEMERGENCE) | Plant response rating, Nutsedge (purple nutsedge; POSTEMERGENCE, Rate 50 g/ha) | Plant response rating, Cotton (cotton; Rate 200 g/ha, PREEMERGENCE) | Plant response rating, Cocklebur (cocklebur; PREEMERGENCE, Rate 50 g/ha) | Plant response rating, Chickweed (chickweed; Rate 200 g/ha, PREEMERGENCE) | Plant response rating, Velvetleaf (velvetleaf; PREEMERGENCE, Rate 50 g/ha) | Plant response rating, Blackgrass (blackgrass; PREEMERGENCE, Rate 50 g/ha)
3: Plant response rating, Morningglory (morningglory; Rate 200 g/ha, PREEMERGENCE) | Plant response rating, Rape (rape; POSTEMERGENCE, Rate 50 g/ha) | Plant response rating, Wheat (wheat; POSTEMERGENCE, Rate 50 g/ha) | Plant response rating, Wild oat (wild oat; POSTEMERGENCE, Rate 50 g/ha) | Plant response rating, Wild oat (wild oat; Rate 200 g/ha, POSTEMERGENCE) | Plant response rating, Cocklebur (cocklebur; Rate 200 g/ha, PREEMERGENCE) | Plant response rating, Blackgrass (blackgrass; Rate 200 g/ha, PREEMERGENCE) | Plant response rating, Crabgrass (crabgrass; POSTEMERGENCE, Rate 50 g/ha) | Plant response rating, Sorghum (sorghum; POSTEMERGENCE, Rate 50 g/ha)
